Measured values published in US8685992B2, “Histone deacetylase inhibitors based simultaneously on trisubstituted 1H-pyrroles and aromatic and heteroaromatic spacers” (Universidad del País Vasco, priority 2009, dated 2014).
One block for each compound: values may come before it.

What was measured:
DLD-1 = assay: Cancer cell growth inhibition, DLD-1; format: cell-based, human; details: DLD-1, Colorectal Cancer, 72 h treatment
Protocol: (§1) Cell culture-based assays were used to evaluate the ability of compounds of the invention to inhibit cancer cell growth inhibition.
(§2) Cells were obtained from the American Type Culture Collection (ATCC). Cells were cultured at 37° C. with 5% CO2 in the appropriate growth medium (see table below), and harvested respectively during the logarithmic growth period and counted with hemocytometer. The cell viability was over 98% by trypan blue exclusion. Cell concentrations were adjusted between 5×10^4 and 2×10^5 cells/ml with respective medium.
(§3) Stock solutions of test compounds and positive drugs Doxorubicin (Zhejiang, Haizheng, China), Paclitaxel (Beijing, Xiehe, China), Vincristin (Shenzhen Wanle, China), 5-FU (Tianjin jinyaoanjisuan, China), Irinotecan (Jiangsu Hengrui, China) and Cisplatin Nanjing zhiyao, China) were prepared in dimethyl sulphoxide (DMSO) or PBS at 20 mM.
(§4) All treatments were performed in triplicate. 10 μl drug solution was added to each well and incubated for 72 hours. At the end of the incubation, 20 μl of the freshly prepared MTS/PMS mixture solution was added to each well and incubated for 4 hours at 37° C. in a humidified, 5% CO2 atmosphere. Absorbance was read at 490 nm using SpectraMAX Plus microplate spectrophotometer. […] In order to calculate IC50, a dose-responsive curve was fitted using nonlinear regression model with a sigmoidal dose response.

OVCAR3 = assay: Cancer cell growth inhibition, OVCAR3; format: cell-based, human; details: OVCAR3, Ovarian Cancer, 72 h treatment
Protocol: as §1, §2, §3, §4

PC-3 = assay: Cancer cell growth inhibition, PC-3; format: cell-based, human; details: PC-3, Prostate Cancer, 72 h treatment
Protocol: as §1, §2, §3, §4

A375 = assay: Cancer cell growth inhibition, A375; format: cell-based, human; details: A375, Melanoma, 72 h treatment
Protocol: as §1, §2, §3, §4

PANC-1 = assay: Cancer cell growth inhibition, PANC-1; format: cell-based, human; details: PANC-1, Pancreatic Cancer, 72 h treatment
Protocol: as §1, §2, §3, §4

KB = assay: Cancer cell growth inhibition, KB; format: cell-based, human; details: Oral Cancer, 72 h treatment
Protocol: as §1, §2, §3, §4

SK-MES-1 = assay: Cancer cell growth inhibition, SK-MES-1; format: cell-based, human; details: SK-MES-1, Lung Cancer, 72 h treatment
Protocol: as §1, §2, §3, §4

Hep3B = assay: Cancer cell growth inhibition, Hep3B; format: cell-based, human; details: Liver Cancer, 72 h treatment
Protocol: as §1, §2, §3, §4

LoVo = assay: Cancer cell growth inhibition, LoVo; format: cell-based, human; details: Colorectal Cancer, 72 h treatment
Protocol: as §1, §2, §3, §4

SW620 = assay: Cancer cell growth inhibition, SW620; format: cell-based, human; details: SW620, Colorectal Cancer, 72 h treatment
Protocol: as §1, §2, §3, §4

MCF-7 = assay: Cancer cell growth inhibition, MCF-7; format: cell-based, human; details: MCF-7, Breast Cancer, 72 h treatment
Protocol: as §1, §2, §3, §4

DU145 = assay: Cancer cell growth inhibition, DU145; format: cell-based, human; details: DU145, Prostate Cancer, 72 h treatment
Protocol: as §1, §2, §3, §4

NCI-N87 = assay: Cancer cell growth inhibition, NCI-N87; format: cell-based, human; details: NCI-N87, Gastric Cancer, 72 h treatment
Protocol: as §1, §2, §3, §4

HT-29 = assay: Cancer cell growth inhibition, HT-29; format: cell-based, human; details: HT-29, Colorectal Cancer, 72 h treatment
Protocol: as §1, §2, §3, §4

NCI-H226 = assay: Cancer cell growth inhibition, NCI-H226; format: cell-based, human; details: NCI-H226, Lung Cancer, 72 h treatment
Protocol: as §1, §2, §3, §4

SK-MEL-5 = assay: Cancer cell growth inhibition, SK-MEL-5; format: cell-based, human; details: SK-MEL-5, Melanoma, 72 h treatment
Protocol: as §1, §2, §3, §4

MDA-MB-231 = assay: Cancer cell growth inhibition, MDA-MB-231; format: cell-based, human; details: MDA-MB-231, Breast Cancer, 72 h treatment
Protocol: as §1, §2, §3, §4

Calu-6 = assay: Cancer cell growth inhibition, Calu-6; format: cell-based, human; details: Calu-6, Lung Cancer, 72 h treatment
Protocol: as §1, §2, §3, §4

SK-OV-3 = assay: Cancer cell growth inhibition, SK-OV-3; format: cell-based, human; details: SK-OV-3, Ovarian Cancer, 72 h treatment
Protocol: as §1, §2, §3, §4

786-O = assay: Cancer cell growth inhibition, 786-O; format: cell-based, human; details: Kindney Cancer, 72 h treatment
Protocol: as §1, §2, §3, §4

MCG803 = assay: Cancer cell growth inhibition, MCG803; format: cell-based, human; details: MCG803, Gastric Cancer, 72 h treatment
Protocol: as §1, §2, §3, §4

NCI-H460 = assay: Cancer cell growth inhibition, NCI-H460; format: cell-based, human; details: NCI-H460, Lung Cancer, 72 h treatment
Protocol: as §1, §2, §3, §4

K562 = assay: Cancer cell growth inhibition, K562; format: cell-based, human; details: K562, CML, 72 h treatment
Protocol: as §1
as §2, with “The cell viability was over 98% by trypan blue exclusion.” left out
as §3, §4

RPMI-8226 = assay: Cancer cell growth inhibition, RPMI-8226; format: cell-based, human; details: RPMI-8226, Orthotopic Multiple Myeloma, 72 h treatment
Protocol: as §1, §2, §3, §4

BGC823 = assay: Cancer cell growth inhibition, BGC823; format: cell-based, human; details: BGC823, Gastric Cancer, 72 h treatment
Protocol: as §1, §2, §3, §4

SW480 = assay: Cancer cell growth inhibition, SW480; format: cell-based, human; details: SW480, Colorectal Cancer, 72 h treatment
Protocol: as §1, §2, §3, §4

LNCaP = assay: Cancer cell growth inhibition, LNCaP; format: cell-based, human; details: Prostate Cancer, 72 h treatment
Protocol: as §1, §2, §3, §4

U87MG = assay: Cancer cell growth inhibition, U87MG; format: cell-based, human; details: Glioblastoma, 72 h treatment
Protocol: as §1, §2, §3, §4

A549 = assay: Cancer cell growth inhibition, A549; format: cell-based, human; details: A549, Lung Cancer, 72 h treatment
Protocol: as §1, §2, §3, §4

Bx-PC-3 = assay: Cancer cell growth inhibition, Bx-PC-3; format: cell-based, human; details: Bx-PC-3, Pancreatic Cancer, 72 h treatment
Protocol: as §1, §2, §3, §4

SK-BR-3 = assay: Cancer cell growth inhibition, SK-BR-3; format: cell-based, human; details: SK-BR-3, Breast Cancer, 72 h treatment
Protocol: as §1, §2, §3, §4

CNE2 = assay: Cancer cell growth inhibition, CNE2; format: cell-based, human; details: CNE2, Nasopharyngeal Cancer, 72 h treatment
Protocol: as §1, §2, §3, §4

Human HDAC1 = Human HDAC1 (Homo sapiens (Human), UniProt Q13547); assay: HDAC1 fluorogenic peptide deacetylation assay; format: biochemical; details: human HDAC1, 50 μM substrate, 30° C., 2 h; read-out: IC50 (nM) of enzyme activity HDAC1
Human HDAC1, sequence (Q13547 whole entry): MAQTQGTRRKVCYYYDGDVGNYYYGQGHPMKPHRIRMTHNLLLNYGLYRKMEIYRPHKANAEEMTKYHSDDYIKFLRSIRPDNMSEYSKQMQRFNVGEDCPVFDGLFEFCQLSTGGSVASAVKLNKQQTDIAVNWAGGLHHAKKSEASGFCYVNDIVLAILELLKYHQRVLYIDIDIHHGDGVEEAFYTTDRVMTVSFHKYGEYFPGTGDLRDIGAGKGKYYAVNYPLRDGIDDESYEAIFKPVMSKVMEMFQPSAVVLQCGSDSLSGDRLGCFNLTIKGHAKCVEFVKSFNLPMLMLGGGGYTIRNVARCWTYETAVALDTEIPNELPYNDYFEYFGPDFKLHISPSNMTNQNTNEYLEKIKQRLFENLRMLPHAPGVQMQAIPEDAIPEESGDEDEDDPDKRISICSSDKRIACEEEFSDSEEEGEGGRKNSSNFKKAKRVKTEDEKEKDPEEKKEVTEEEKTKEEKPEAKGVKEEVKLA

Human HDAC7 = Human HDAC7 (Homo sapiens (Human), UniProt Q8WUI4); assay: HDAC7 fluorogenic peptide deacetylation assay; format: biochemical; details: human HDAC7, 50 μM substrate, 30° C., 2 h; read-out: IC50 (nM) of enzyme activity HDAC7
Human HDAC7, sequence (Q8WUI4 479-952 limits assumed): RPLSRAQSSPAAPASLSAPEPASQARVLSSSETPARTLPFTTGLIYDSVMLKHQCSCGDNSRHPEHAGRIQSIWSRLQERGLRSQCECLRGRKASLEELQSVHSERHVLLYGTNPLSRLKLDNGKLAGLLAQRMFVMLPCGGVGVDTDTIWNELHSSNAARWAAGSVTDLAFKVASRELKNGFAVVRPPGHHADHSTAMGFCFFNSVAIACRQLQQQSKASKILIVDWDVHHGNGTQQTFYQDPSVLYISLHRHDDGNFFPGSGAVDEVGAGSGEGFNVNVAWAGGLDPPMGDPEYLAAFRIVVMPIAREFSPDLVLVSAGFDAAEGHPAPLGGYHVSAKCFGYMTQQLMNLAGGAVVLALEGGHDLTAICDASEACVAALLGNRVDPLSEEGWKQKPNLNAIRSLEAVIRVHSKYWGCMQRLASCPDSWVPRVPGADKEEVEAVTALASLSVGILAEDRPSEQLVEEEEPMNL

Human HDAC9 = Human HDAC9 (Homo sapiens (Human), UniProt Q9UKV0); assay: HDAC9 fluorogenic peptide deacetylation assay; format: biochemical; details: human HDAC9, 50 μM substrate, 30° C., 2 h; read-out: IC50 (nM) of enzyme activity HDAC9
Human HDAC5 = Human HDAC5 (Homo sapiens (Human), UniProt Q9UQL6); assay: HDAC5 fluorogenic peptide deacetylation assay; format: biochemical; details: human HDAC5, 50 μM substrate, 30° C., 2 h; read-out: IC50 (nM) of enzyme activity HDAC5
Human HDAC5, sequence (Q9UQL6 other isoform, or with tags, fused parts or gaps): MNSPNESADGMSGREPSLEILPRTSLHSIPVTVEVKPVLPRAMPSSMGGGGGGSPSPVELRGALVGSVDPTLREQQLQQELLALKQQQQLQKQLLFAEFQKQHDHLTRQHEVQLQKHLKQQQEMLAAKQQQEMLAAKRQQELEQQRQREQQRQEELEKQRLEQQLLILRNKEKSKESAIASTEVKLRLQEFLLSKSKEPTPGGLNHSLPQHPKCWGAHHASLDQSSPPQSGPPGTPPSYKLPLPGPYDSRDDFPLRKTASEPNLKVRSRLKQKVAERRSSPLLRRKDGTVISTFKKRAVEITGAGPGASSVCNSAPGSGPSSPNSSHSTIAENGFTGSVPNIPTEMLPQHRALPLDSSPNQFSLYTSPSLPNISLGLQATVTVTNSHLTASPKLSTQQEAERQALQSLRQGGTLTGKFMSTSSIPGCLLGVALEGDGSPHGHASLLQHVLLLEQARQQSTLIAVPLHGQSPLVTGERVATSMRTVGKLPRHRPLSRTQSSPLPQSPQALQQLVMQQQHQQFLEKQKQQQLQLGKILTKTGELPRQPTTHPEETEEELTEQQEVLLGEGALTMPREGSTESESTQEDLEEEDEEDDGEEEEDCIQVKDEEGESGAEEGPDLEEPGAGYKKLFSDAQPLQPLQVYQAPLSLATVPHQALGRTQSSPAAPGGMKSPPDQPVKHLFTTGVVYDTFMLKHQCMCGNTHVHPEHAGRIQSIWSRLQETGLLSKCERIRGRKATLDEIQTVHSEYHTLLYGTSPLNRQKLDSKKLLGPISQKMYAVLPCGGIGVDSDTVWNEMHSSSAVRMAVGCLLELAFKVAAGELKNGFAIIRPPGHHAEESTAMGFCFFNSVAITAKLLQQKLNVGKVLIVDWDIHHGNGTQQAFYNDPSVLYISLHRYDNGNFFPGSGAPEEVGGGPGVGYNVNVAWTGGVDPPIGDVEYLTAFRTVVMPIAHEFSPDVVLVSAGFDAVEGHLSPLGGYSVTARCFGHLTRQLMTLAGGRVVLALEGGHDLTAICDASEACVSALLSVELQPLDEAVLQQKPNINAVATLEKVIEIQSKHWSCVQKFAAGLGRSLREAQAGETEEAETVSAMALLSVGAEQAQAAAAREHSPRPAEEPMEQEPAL

Human HDAC8 = Human HDAC8 (Homo sapiens (Human), UniProt Q9BY41); assay: HDAC8 fluorogenic peptide deacetylation assay; format: biochemical; details: human HDAC8, 50 μM substrate, 30° C., 2 h; read-out: IC50 (nM) of enzyme activity HDAC8
Human HDAC8, sequence (Q9BY41 whole entry): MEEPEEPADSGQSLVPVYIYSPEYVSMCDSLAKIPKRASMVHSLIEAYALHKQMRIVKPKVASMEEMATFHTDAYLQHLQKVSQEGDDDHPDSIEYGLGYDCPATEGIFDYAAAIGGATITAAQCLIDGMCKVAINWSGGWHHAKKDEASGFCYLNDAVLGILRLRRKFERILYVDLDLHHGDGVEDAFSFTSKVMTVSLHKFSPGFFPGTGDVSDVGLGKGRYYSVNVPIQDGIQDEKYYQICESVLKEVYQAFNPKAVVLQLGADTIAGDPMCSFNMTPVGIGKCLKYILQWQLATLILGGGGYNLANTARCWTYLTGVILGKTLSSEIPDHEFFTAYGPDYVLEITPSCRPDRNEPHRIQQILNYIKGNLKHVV

Human HDAC2 = Human HDAC2 (Homo sapiens (Human), UniProt Q92769); assay: HDAC2 fluorogenic peptide deacetylation assay; format: biochemical; details: human HDAC2, 50 μM substrate, 30° C., 2 h; read-out: IC50 (nM) of enzyme activity HDAC2
Human HDAC6 = Human HDAC6 (Homo sapiens (Human), UniProt Q9UBN7); assay: HDAC6 fluorogenic peptide deacetylation assay; format: biochemical; details: human HDAC6, 50 μM substrate, 30° C., 2 h; read-out: IC50 (nM) of enzyme activity HDAC6
Human HDAC6, sequence (Q9UBN7 whole entry): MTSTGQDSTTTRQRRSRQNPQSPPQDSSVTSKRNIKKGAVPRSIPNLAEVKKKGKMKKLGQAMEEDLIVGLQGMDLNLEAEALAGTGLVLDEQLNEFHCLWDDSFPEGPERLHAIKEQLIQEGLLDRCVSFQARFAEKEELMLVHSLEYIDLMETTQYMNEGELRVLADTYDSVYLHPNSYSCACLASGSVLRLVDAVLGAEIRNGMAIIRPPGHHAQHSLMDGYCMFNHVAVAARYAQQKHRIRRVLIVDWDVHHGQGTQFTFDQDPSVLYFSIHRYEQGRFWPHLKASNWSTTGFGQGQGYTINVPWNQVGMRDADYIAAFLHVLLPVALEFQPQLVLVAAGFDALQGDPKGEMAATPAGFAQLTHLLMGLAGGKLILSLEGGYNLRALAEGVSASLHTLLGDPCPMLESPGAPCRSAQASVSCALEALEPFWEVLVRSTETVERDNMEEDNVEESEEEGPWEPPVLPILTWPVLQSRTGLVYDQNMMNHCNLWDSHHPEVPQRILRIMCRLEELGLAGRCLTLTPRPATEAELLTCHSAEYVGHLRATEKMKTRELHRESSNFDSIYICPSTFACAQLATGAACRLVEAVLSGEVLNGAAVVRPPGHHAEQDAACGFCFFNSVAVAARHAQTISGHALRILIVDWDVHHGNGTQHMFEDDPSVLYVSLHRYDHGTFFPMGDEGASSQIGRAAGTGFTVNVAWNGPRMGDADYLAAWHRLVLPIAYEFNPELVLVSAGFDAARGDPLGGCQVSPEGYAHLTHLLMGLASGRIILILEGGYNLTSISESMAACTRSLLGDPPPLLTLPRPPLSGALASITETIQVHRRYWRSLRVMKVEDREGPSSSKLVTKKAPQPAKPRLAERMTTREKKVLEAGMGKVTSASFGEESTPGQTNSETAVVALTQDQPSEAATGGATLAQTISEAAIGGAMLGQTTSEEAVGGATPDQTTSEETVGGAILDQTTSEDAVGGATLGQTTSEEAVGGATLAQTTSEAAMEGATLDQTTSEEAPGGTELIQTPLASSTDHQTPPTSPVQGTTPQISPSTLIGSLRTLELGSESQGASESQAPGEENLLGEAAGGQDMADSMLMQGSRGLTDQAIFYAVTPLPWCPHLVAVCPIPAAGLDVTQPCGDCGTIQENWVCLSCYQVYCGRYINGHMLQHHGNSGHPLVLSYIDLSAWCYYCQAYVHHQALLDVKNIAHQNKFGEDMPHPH

Human HDAC4 = Human HDAC4 (Homo sapiens (Human), UniProt P56524); assay: HDAC4 fluorogenic peptide deacetylation assay; format: biochemical; details: human HDAC4, 50 μM substrate, 30° C., 2 h; read-out: IC50 (nM) of enzyme activity HDAC4
Human HDAC11 = Human HDAC11 (Homo sapiens (Human), UniProt Q96DB2); assay: HDAC11 fluorogenic peptide deacetylation assay; format: biochemical; details: human HDAC11, 50 μM substrate, 30° C., 2 h; read-out: IC50 (nM) of enzyme activity HDAC11
Human HDAC10 = Human HDAC10 (Homo sapiens (Human), UniProt Q969S8); assay: HDAC10 fluorogenic peptide deacetylation assay; format: biochemical; details: human HDAC10, 50 μM substrate, 30° C., 2 h; read-out: IC50 (nM) of enzyme activity HDAC10
Human HDAC10, sequence (Q969S8 1-631): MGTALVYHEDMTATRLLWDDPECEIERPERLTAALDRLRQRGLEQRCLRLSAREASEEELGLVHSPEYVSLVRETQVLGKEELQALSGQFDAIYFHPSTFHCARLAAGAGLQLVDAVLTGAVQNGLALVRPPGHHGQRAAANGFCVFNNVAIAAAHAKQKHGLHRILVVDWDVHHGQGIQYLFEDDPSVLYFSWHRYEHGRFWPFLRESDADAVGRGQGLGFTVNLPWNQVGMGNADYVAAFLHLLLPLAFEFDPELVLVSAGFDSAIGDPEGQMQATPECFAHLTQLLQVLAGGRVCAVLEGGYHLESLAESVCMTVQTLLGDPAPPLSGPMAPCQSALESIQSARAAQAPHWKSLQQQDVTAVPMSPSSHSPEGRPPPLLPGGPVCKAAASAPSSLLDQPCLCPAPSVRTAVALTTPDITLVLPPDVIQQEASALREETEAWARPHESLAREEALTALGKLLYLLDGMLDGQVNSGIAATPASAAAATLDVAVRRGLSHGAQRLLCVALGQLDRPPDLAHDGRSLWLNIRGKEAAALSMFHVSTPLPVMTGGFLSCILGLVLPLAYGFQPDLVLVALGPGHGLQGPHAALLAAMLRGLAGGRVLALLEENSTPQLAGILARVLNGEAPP

[1] = system: Nuclear Extract from HeLa Cells; assay: HeLa Nuclear Extract HDAC assay; format: biochemical, human; details: 50 μM substrate, 30° C., 2 h, read-out: IC50 (nM) of enzyme activity HeLa
Human HDAC3/NcoR2 = Human HDAC3/NcoR2 (Homo sapiens (Human), UniProt O15379); assay: HDAC3 fluorogenic peptide deacetylation assay; format: biochemical; details: human HDAC3/NcoR2, 50 μM substrate, 30° C., 2 h; read-out: IC50 (nM) of enzyme activity HDAC3
Human HDAC3/NcoR2, sequence (O15379 whole entry): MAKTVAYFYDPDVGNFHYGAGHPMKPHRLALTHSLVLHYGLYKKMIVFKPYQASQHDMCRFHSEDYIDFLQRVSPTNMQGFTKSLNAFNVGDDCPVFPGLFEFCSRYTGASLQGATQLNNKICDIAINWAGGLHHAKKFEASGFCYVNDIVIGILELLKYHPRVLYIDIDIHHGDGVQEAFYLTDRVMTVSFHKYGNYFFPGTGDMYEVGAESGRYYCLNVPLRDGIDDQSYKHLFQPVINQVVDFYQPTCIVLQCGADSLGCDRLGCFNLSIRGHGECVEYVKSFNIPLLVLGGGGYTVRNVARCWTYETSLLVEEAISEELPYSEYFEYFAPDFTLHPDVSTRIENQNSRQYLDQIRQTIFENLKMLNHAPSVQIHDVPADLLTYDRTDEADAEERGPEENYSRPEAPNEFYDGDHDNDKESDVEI
Human HDAC3/NcoR2, sequence (Q9Y618 395-489 partner): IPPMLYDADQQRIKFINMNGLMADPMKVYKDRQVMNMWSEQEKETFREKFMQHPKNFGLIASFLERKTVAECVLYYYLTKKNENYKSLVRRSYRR

Compound: N.N.[Cl][Pt][Cl] [Cisplatin, reference compound]
- IC50 (DLD-1): 18.3 µM
- IC50 (OVCAR3): 11.7 µM
- IC50 (PC-3): 11.5 µM
- IC50 (A375): 6.55 µM
- IC50 (PANC-1): 24.8 µM
- IC50 (KB): 3.97 µM
- IC50 (SK-MES-1): 5.12 µM
- IC50 (Hep3B): 3.96 µM
- IC50 (LoVo): 4.65 µM
- IC50 (SW620): 84.3 µM
- IC50 (MCF-7): 7.75 µM
- IC50 (DU145): 4.01 µM
- IC50 (NCI-N87): 8.24 µM
- IC50 (HT-29): 14.9 µM
- IC50 (NCI-H226): 9.5 µM
- IC50 (SK-MEL-5): 2.87 µM
- IC50 (MDA-MB-231): 99.8 µM
- IC50 (Calu-6): 1.61 µM
- IC50 (SK-OV-3): 4.42 µM
- IC50 (786-O): 4.32 µM
- IC50 (MCG803): 11.4 µM
- IC50 (NCI-H460): 6.93 µM
- IC50 (K562): 13.2 µM
- IC50 (RPMI-8226): 1.06 µM
- IC50 (BGC823): 1.29 µM
- IC50 (SW480): 10.8 µM
- IC50 (LNCaP): 8.92 µM
- IC50 (U87MG): 7.61 µM
- IC50 (A549): 28.4 µM
- IC50 (Bx-PC-3): 6.12 µM
- IC50 (SK-BR-3): 1.74 µM
- IC50 (CNE2): 11.8 µM

- IC50 (Human HDAC1): 332 nM
- IC50 (Human HDAC7): > 5000 nM
- IC50 (Human HDAC9): > 5000 nM
- IC50 (Human HDAC5): 8640 nM
- IC50 (Human HDAC8): > 5000 nM
- IC50 (Human HDAC2): 1840 nM
- IC50 (Human HDAC6): 2890 nM
- IC50 (Human HDAC4): > 5000 nM
- IC50 (Human HDAC11): 5660 nM
- IC50 (Human HDAC10): 8550 nM
- IC50 [1]: 1080 nM
- IC50 (Human HDAC3/NcoR2): 5830 nM
Compound: Nc1ccccc1NC(=O)c1ccc(CNC(=O)c2[nH]c(-c3ccc(O)cc3)cc2-c2ccoc2)cc1 [Example 37, N-(4-{[(2-aminophenyl)amino)carbonyl]benzyl}-3-(3-furyl)-5-(4-hydroxyphenyl)-1H-pyrrole-2-carboxamide]
